{"source": "paper PMC12194305", "about": "“Assessing Bioconcentration and Biotransformation of BDE-47 In Vitro: The Relevance of Bioavailable and Intracellular Concentrations” (Journal of Xenobiotics, 2025)", "key": {"ZFL cells [1]": {"tested_on": "ZFL cells", "experiment": "Cell viability by MTT assay", "type": "cell-based, zebrafish", "details": "72 h", "protocol": "Cell viability was determined by MTT assay. A total of 10,000 cells/well were seeded in 96-well plates under culture conditions for 24 h. Then, the culture medium was replaced by contaminated medium (200 µL) with range of concentrations of BDE-47 (0.2–10 mg·L^−1). Three independent replicates with the same experimental conditions, a control group (cells without pollutant) and a blank group (only cell culture medium) were performed. After 72 h, 20 µL of MTT solution (5 mg·mL^−1) was added to provide a final concentration of 0.5 mg·mL^−1 and incubated for 4 h. Formazan produced in the MTT assay was dissolved using 100 μL DMSO, and absorbance was recorded at 595 nm. The results have been subsequently used for the design of the bioaccumulation and biotransformation experiment."}, "[2]": {"experiment": "Abiotic (volatilization) losses, contaminated medium without cells", "type": "physicochemical", "protocol": "A total of 2 × 10^6 ZFL cells were plated in P100 glass dishes and incubated for 24 h under standard culture conditions. Subsequently, the culture medium was replaced with a contaminated medium, which, according to the cell viability assay, maintained viability above 70% by the end of the exposure period (Section 2.3). Cells were exposed to 1.8 and 2.6 mg⋅L^−1 for 24, 48 and 72 h, in two independent experiments. Parallel experiments were conducted under identical conditions to assess losses: one set included cells without contaminated medium, and another consisted of contaminated medium without cells (“no cells”). The obtained pellets were collected from all exposure time, dried under a gentle stream of nitrogen and weighed on a precision analytical balance (±0.00001 g). Finally, the dried cell pellets and their corresponding medium collected at all exposure times, including the starting medium (“t = 0 h”), were stored at −20 °C until analysis.\nOne of the objectives was to assess whether cell lines can be used within the BCF-IVIVE model, relying on intrinsic clearance in vitro, to estimate the biotransformation rate which is subsequently extrapolated to adult fish. This approach is based on the model developed by Nichols et al. and is endorsed by the OECD guideline 319A [10] and OECD 2018a. Briefly, the log10-transformed substrate experimental concentrations in the medium (Cmed) were plotted against time, and the first-order elimination rate constant (ke, h^−1) was determined as −2.3 × slope of the log-linear decline. Black et al. indicate that a correction to the elimination rate constant (ke) should be applied when the following conditions are met: (i) abiotic losses from volatilization, calculated by comparing the recovery of negative control samples (“no cells”) at each exposure time to the initial time, fall outside the acceptable range of 80–120%, (ii) the loss process follows first order kinetics, and (iii) the ratio of ke and the volatilization rate constant (kvolat) is below 10 (ke/kvolat < 10). Then, the constant corrected for losses due to volatilization (ke,loss) was determined as −2.3 × the difference of the slopes of the sample and the loss control of the log-linear descent. The in vitro constant was then extrapolated to obtain an in vivo metabolization constant (kMET). This was done using experimental cell concentration (CHEP, 10^6 cells/mL) and default parameters derived from rainbow trout. In this study, in addition to estimating BCF with the official model parameters derived from rainbow trout (BCFIVIVE,RT), BCF was also estimated with the literature-derived parameters for zebrafish (BCFIVIVE,ZF), due to the use of ZFL cells. Finally, the BCF was estimated by the ratio of concentration in the organism to concentration in the medium, following the standardized model. The concentration in the organism was predicted using the one-compartment model given by Arnot and Gobas, which includes the rate constants describing chemical uptake (k1), loss through the gills (k2), fecal egestion (kE), growth rate (kG) and metabolization rate (kMET). Except for kMET, which is estimated experimentally in vitro, the rest are only dependent on the log KOW of the compound. On the other hand, due to the use of cell lines, the free concentration estimated was introduced instead of the total concentration in the medium (CW,TOT)."}, "ZFL cells [3]": {"tested_on": "ZFL cells", "experiment": "Substrate depletion in ZFL cells, inputs of the IVIVE-BCF model", "type": "in vitro ADME, zebrafish", "text": "One of the objectives was to assess whether cell lines can be used within the BCF-IVIVE model, relying on intrinsic clearance in vitro, to estimate the biotransformation rate which is subsequently extrapolated to adult fish. This approach is based on the model developed by Nichols et al. and is endorsed by the OECD guideline 319A [10] and OECD 2018a. Briefly, the log10-transformed substrate experimental concentrations in the medium (Cmed) were plotted against time, and the first-order elimination rate constant (ke, h^−1) was determined as −2.3 × slope of the log-linear decline. Black et al. indicate that a correction to the elimination rate constant (ke) should be applied when the following conditions are met: (i) abiotic losses from volatilization, calculated by comparing the recovery of negative control samples (“no cells”) at each exposure time to the initial time, fall outside the acceptable range of 80–120%, (ii) the loss process follows first order kinetics, and (iii) the ratio of ke and the volatilization rate constant (kvolat) is below 10 (ke/kvolat < 10). Then, the constant corrected for losses due to volatilization (ke,loss) was determined as −2.3 × the difference of the slopes of the sample and the loss control of the log-linear descent. The in vitro constant was then extrapolated to obtain an in vivo metabolization constant (kMET). This was done using experimental cell concentration (CHEP, 10^6 cells/mL) and default parameters derived from rainbow trout. In this study, in addition to estimating BCF with the official model parameters derived from rainbow trout (BCFIVIVE,RT), BCF was also estimated with the literature-derived parameters for zebrafish (BCFIVIVE,ZF), due to the use of ZFL cells. Finally, the BCF was estimated by the ratio of concentration in the organism to concentration in the medium, following the standardized model. […]"}, "ZFL cells [4]": {"tested_on": "ZFL cells", "design": "method as in PMID 25544063", "details": "10% FBS, cited from earlier work"}, "zebrafish": {"tested_on": "zebrafish", "experiment": "IVIVE-BCF model with zebrafish default parameters", "type": "in vitro ADME", "details": "k1 and k2 from experimental Ccell and Cfree"}, "rainbow trout": {"tested_on": "rainbow trout", "experiment": "IVIVE-BCF model with rainbow trout default parameters", "type": "in vitro ADME", "details": "k1 and k2 from experimental Ccell and Cfree"}, "[5]": {"tested_on": "zebrafish eleutheroembryos", "design": "method as in PMID 36705440", "details": "cited from earlier work"}, "[6]": {"tested_on": "Mytilus galloprovincialis (mussel)", "details": "cited from earlier work"}, "young Psetta maxima": {"tested_on": "young Psetta maxima", "design": "method as in doi:10.1007/s11270-014-2072-0", "details": "cited from earlier work"}, "Gammarus pulex": {"tested_on": "Gammarus pulex", "design": "method as in PMID 24879528", "details": "1 µg·L^−1; cited from earlier work"}, "[7]": {"details": "cited from earlier work"}}, "note": "Where two headings read alike, the source gives them in different places.", "data": [{"compound": "Brc1ccc(Oc2ccc(Br)cc2Br)c(Br)c1", "note": "[BDE-47, 2,2′,4,4′-tetrabromodiphenyl ether]", "values": [{"measurement": "LC30 after applying percentage of Cfree", "setting": "ZFL cells [1]; bioavailable concentration", "value": 0.00055, "unit": "µg/mL"}, {"measurement": "concentration decreasing viability by 30% (LC30)", "setting": "ZFL cells [1]; nominal concentration, 10% FBS", "value": 0.45, "unit": "µg/mL"}, {"measurement": "concentration decreasing viability by 50% (LC50)", "setting": "ZFL cells [1]; nominal concentration, 10% FBS", "value": 2.03, "unit": "µg/mL"}, {"measurement": "Recovery of losses from volatilization (% Rec. Vol.)", "setting": "[2]; 24h, 1.8 mg·L-1, no cells vs time 0h", "value": 76, "unit": "%"}, {"measurement": "Recovery of losses from volatilization (% Rec. Vol.)", "setting": "[2]; 24h, 2.6 mg·L-1, no cells vs time 0h", "value": 73, "unit": "%"}, {"measurement": "Recovery of losses from volatilization (% Rec. Vol.)", "setting": "[2]; 48h, 1.8 mg·L-1, no cells vs time 0h", "value": 69, "unit": "%"}, {"measurement": "Recovery of losses from volatilization (% Rec. Vol.)", "setting": "[2]; 48h, 2.6 mg·L-1, no cells vs time 0h", "value": 63, "unit": "%"}, {"measurement": "Recovery of losses from volatilization (% Rec. Vol.)", "setting": "[2]; 72h, 1.8 mg·L-1, no cells vs time 0h", "value": 68, "unit": "%"}, {"measurement": "Recovery of losses from volatilization (% Rec. Vol.)", "setting": "[2]; 72h, 2.6 mg·L-1, no cells vs time 0h", "value": 52, "unit": "%"}, {"measurement": "decrease in Cmedium,no cells with respect to nominal concentration", "setting": "[2]; Cnominal 1.8 mg·L^−1, cell-free sample", "value": 29, "unit": "%"}, {"measurement": "decrease in Cmedium,no cells with respect to nominal concentration", "setting": "[2]; Cnominal 2.6 mg·L^−1, cell-free sample", "value": 37, "unit": "%"}, {"measurement": "ke,loss", "setting": "ZFL cells [3]; Experiment 1.8 mg·L-1, corrected for volatilization losses", "value": 0.012, "unit": "h⁻¹"}, {"measurement": "ke,loss", "setting": "ZFL cells [3]; Experiment 2.6 mg·L-1, corrected for volatilization losses", "value": 0.002, "unit": "h⁻¹"}, {"measurement": "Cw, TOT (Cfree,exp)", "setting": "ZFL cells [3]; Experiment 2.6 mg·L-1, input parameter", "value": 0.0016, "unit": "mg/L"}, {"measurement": "LC50 (24 h)", "setting": "ZFL cells [4]; 24 h", "value": 1.60, "unit": "µg/mL"}, {"measurement": "LC50 (96 h)", "setting": "ZFL cells [4]; 96 h", "value": 1.26, "unit": "µg/mL"}, {"measurement": "BCFIVIVE, ZF, exp", "setting": "zebrafish; Cnominal 1.8 mg·L^−1", "value": "22,614 L·kg^−1"}, {"measurement": "BCFIVIVE, ZF, exp", "setting": "zebrafish; Cnominal 2.6 mg·L^−1", "value": "38,948 L·kg^−1"}, {"measurement": "BCFIVIVE, RT, exp", "setting": "rainbow trout; Cnominal 1.8 mg·L^−1", "value": "26,306 L·kg^−1"}, {"measurement": "BCFIVIVE, RT, exp", "setting": "rainbow trout; Cnominal 2.6 mg·L^−1", "value": "48,635 L·kg^−1"}, {"measurement": "BCF48 h", "setting": "[5]; 1 µg·L^−1, zebrafish larvae", "value": "16,392 L·kg^−1"}, {"measurement": "BCFk", "setting": "[5]; 1 µg·L^−1, zebrafish larvae", "value": "36,363 L·kg^−1"}, {"measurement": "BCF48 h", "setting": "[5]; 10 µg·L^−1, zebrafish larvae", "value": 4106, "unit": "L/kg"}, {"measurement": "BCFk", "setting": "[5]; 10 µg·L^−1, zebrafish larvae", "value": 7295, "unit": "L/kg"}, {"measurement": "BCFk", "setting": "[6]; 0.31 ng·L^−1", "value": "26,000 L·kg^−1"}, {"measurement": "BCFk", "setting": "[6]; 8 µg·L^−1", "value": "10,900 L·kg^−1"}, {"measurement": "BCFk", "setting": "young Psetta maxima; 0.001 µg·L^−1", "value": "33,103 L·kg^−1"}, {"measurement": "BCFk", "setting": "young Psetta maxima; 0.1 µg·L^−1", "value": "15,531 L·kg^−1"}, {"measurement": "BCFk", "setting": "young Psetta maxima; 1 µg·L^−1", "value": "24,125 L·kg^−1"}, {"measurement": "BCFk", "setting": "Gammarus pulex", "value": "~5000", "unit": "L/kg"}, {"measurement": "Henry's law constant (KH)", "setting": "[7]; at 30 °C", "value": "1.79 ± 0.21", "unit": "Pa·m^3·mol^−1"}, {"measurement": "log Kow", "setting": "[7]", "value": 6.81}, {"measurement": "log DPDMS/medium", "setting": "[7]; partition constant PDMS fiber/medium", "value": 5.84}]}]}
